The text below walks through data of patent US20240336588A1, “COMPOSITIONS AND METHODS FOR ANTIOXIDANT AND ANTI-INFLAMMATORY THERAPEUTICS” (AVANTI BIOSCIENCES INC., priority 2021, published 2024).

Each structure is given as a SMILES string.

The assay deals with DYRK1A (HT-497, 6×His tagged rat truncated DYRK1A isoform X1 residues 1-497) (Rattus norvegicus (Rat), UniProt Q63470). Kind of assay: DYRK1A ELISA assay (HT-PRD phosphorylation). It is filed as biochemical. The note with it: 100 µM ATP, 5 ng HT-497, 30 min at 30° C. As to the method: Compounds of Table 1, above, were examined in vitro for activity against DYRK1A, DYRK1B, DYRK2 via an ELISA assay.
DYRK1A assay. […] After blocking, wells were washed extensively with dilution buffer before subjecting to phosphorylation. […] At the end point, wells were washed with ˜350 μl dilution buffer three times to terminate the reaction. […] Each point was run in quadruplicate with DMSO present in all assays at 0.2% final concentration. […] HT-PRD phosphorylation was subsequently determined by the sandwich antibody staining protocol, first with 100 μl mouse mAb 3D3 specific for detecting DYRK1A-phosphorylated PRD (60 min at room temperature) then with 100 μl alkaline phosphatase (AP)-linked anti-mouse secondary antibody (60 min at room temperature), followed by colorimetric reaction with 100 μl PNPP solution (PNPP substrate tablet, Thermo Fisher). […] The readings were then recorded for subsequent IC50 calculation. The DYRK1A assay protocol can also support DYRK1B and DYRK2 phosphorylation reactions in the enzyme concentration-dependent manner; therefore, the method was adapted for measuring the activity of candidate compounds against DYRK1B and DYRK2. For DYRK2, the reactions were performed as described above with 6 ng HT-DYRK2 (6×His tagged full-length human DYRK2 isoform 1). For DYRK1B, the assays were also similarly conducted but with 70 ng GST-DYRK1B (glutathione S-transferase tagged full length human DYRK1B isoform p65) and an extended kinase reaction time of 60 min.
Dilution factors for both mAb 3D3 and secondary antibody were pre-determined for each batch of antibody to ensure that neither antibody was limiting in the assay.
Data transformation, calculation, plotting, curve fitting, and IC 50 calculation were performed in KaleidaGraph (http://www.synergy.com/wordpress_650164087; Mac version 4.1). Data was corrected for background (readings from wells with only PNPP) before subsequent manipulations. […] The resulting residual activity was then plotted against its corresponding inhibitor concentrations in semi-log graph and the plot was fit to the sigmoidal equation, y=a+(b−a)/(1+(x/c)^d), for IC50 calculation.
On the technique in general: ELISA stands for enzyme-linked immunosorbent assay.

As usually defined, the IC50 is the concentration that inhibits the measured activity by half. With `O=C(O[C@@H]1Cc2c(O)cc(O)cc2O[C@@H]1c1ccc(O)c(O)c1)c1cc(O)c(O)c(O)c1` [Compound 6, (2R,3R)-2-(3,4-dihydroxyphenyl)-5,7-dihydroxychroman-3-yl 3,4,5-trihydroxybenzoate], the IC50 was over 100 nM.

Turning to `O=C(O[C@@H]1Cc2c(O)cc(O)cc2O[C@H]1c1ccc(O)c(O)c1)c1cc(O)c(O)c(O)c1` [Compound 7, (2S,3R)-2-(3,4-dihydroxyphenyl)-5,7-dihydroxychroman-3-yl 3,4,5-trihydroxybenzoate], the IC50 was over 100 nM.

For `COc1cc(C(=O)O[C@@H]2Cc3c(O)cc(O)cc3O[C@@H]2c2cc(O)c(O)c(O)c2)cc(O)c1O` [Compound 8, (2R,3R)-5,7-dihydroxy-2-(3,4,5-trihydroxyphenyl)chroman-3-yl 3,4-dihydroxy-5-methoxybenzoate], the IC50 is over 100 nM.

As to `O=C(N[C@H]1Cc2c(O)cc(O)cc2O[C@@H]1c1cc(O)c(O)c(O)c1)c1cc(O)c(O)c(O)c1` [Compound 9, N-((2R,3S)-5,7-dihydroxy-2-(3,4,5-trihydroxyphenyl)chroman-3-yl)-3,4,5-trihydroxybenzamide], the IC50 was over 100 nM.

With `COc1cc(C(=O)N[C@H]2Cc3c(O)cc(O)cc3O[C@@H]2c2cc(O)c(O)c(O)c2)cc(O)c1O` [Compound 10, N-((2R,3S)-5,7-dihydroxy-2-(3,4,5-trihydroxyphenyl)chroman-3-yl)-3,4-dihydroxy-5-methoxybenzamide], the IC50 was over 1000 nM.

As to `O=C(O[C@@H]1Cc2c(O)cc(O)cc2O[C@@H]1c1cc(O)c(O)c(O)c1)c1ccc(O)c(O)c1` [Compound 11, (2R,3R)-5,7-dihydroxy-2-(3,4,5-trihydroxyphenyl)chroman-3-yl 3,4-dihydroxybenzoate], the IC50 is over 100 nM.

For the molecule `CCNC(=O)Oc1cc(C(=O)O[C@@H]2Cc3c(O)cc(O)cc3O[C@@H]2c2cc(O)c(O)c(O)c2)cc(O)c1O` [Compound 12, (2R,3R)-5,7-dihydroxy-2-(3,4,5-trihydroxyphenyl)chroman-3-yl 3-((ethylcarbamoyl)oxy)-4,5-dihydroxybenzoate], the IC50 is over 100 nM.

For `CCNC(=O)Oc1c(O)cc(C(=O)O[C@@H]2Cc3c(O)cc(O)cc3O[C@@H]2c2cc(O)c(O)c(O)c2)cc1O` [Compound 13, (2R,3R)-5,7-dihydroxy-2-(3,4,5-trihydroxyphenyl)chroman-3-yl 4-((ethylcarbamoyl)oxy)-3,5-dihydroxybenzoate], the IC50 was over 1000 nM.

Regarding `CC(C)C(=O)Oc1c(O)cc(C(=O)O[C@@H]2Cc3c(O)cc(O)cc3O[C@@H]2c2cc(O)c(O)c(O)c2)cc1O` [Compound 14, (2R,3R)-5,7-dihydroxy-2-(3,4,5-trihydroxyphenyl)chroman-3-yl 3,5-dihydroxy-4-(isobutyryloxy)benzoate], the IC50 is over 100 nM.

As for `O=C(N[C@H]1Cc2c(O)cc(O)cc2O[C@@H]1c1cc(O)c(O)c(O)c1)c1ccc(O)c(O)c1` [Compound 15, N-((2R,3S)-5,7-dihydroxy-2-(3,4,5-trihydroxyphenyl)chroman-3-yl)-3,4-dihydroxybenzamide], the IC50 is over 1000 nM.

As to `O=C(N[C@H]1Cc2c(O)cc(O)cc2O[C@@H]1c1cc(O)c(O)c(O)c1)c1ccc(O)cc1` [Compound 16, N-((2R,3S)-5,7-dihydroxy-2-(3,4,5-trihydroxyphenyl)chroman-3-yl)-4-hydroxybenzamide], the IC50 was over 1000 nM.

In the case of `O=C(N[C@H]1Cc2c(O)cc(O)cc2O[C@@H]1c1cc(O)c(O)c(O)c1)c1ccc(F)c(F)c1` [Compound 17, N-((2R,3S)-5,7-dihydroxy-2-(3,4,5-trihydroxyphenyl)chroman-3-yl)-3,4-difluorobenzamide], the IC50 was over 1000 nM.

Take `COc1cc(C(=O)O[C@H]2Cc3c(O)cc(O)cc3O[C@@H]2c2cc(O)c(O)c(O)c2)cc(O)c1O` [Compound 18, (2R,3S)-5,7-dihydroxy-2-(3,4,5-trihydroxyphenyl)chroman-3-yl 3,4-dihydroxy-5-methoxybenzoate]: the IC50 was over 100 nM.
